We go through three molecules from the NIST ThermoML archive (doi:10.1016/j.fluid.2009.07.009).

± gives the expanded uncertainty stated by the source.

The series is described as follows: relative permittivity at zero frequency (dimensionless). Conditions: 303.15 K; 101.33 kPa; Liquid; Parallel plate capacitor.
`CN(C)C=O` [dimethylformamide]: the “relative permittivity at zero frequency” value is reported as 36.55 ± 0.22. As for `CN(C)CCO` [2-(N,N-dimethylamino)ethanol], the figure is 17.18 ± 0.1; as for `NC=O` [formamide], 106.14 ± 0.01.
